The results in this text go back to US20210275506A1, “COMPOSITIONS AND METHODS OF TREATMENT” (Blueberry Therapeutics Limited, priority 2018, published 2021).

A short description of data set [1]: Solubility of the APIs in ethanol and water vehicles. The class given is physicochemical. Particulars: for Solubility in words: water and ethanol; for solubility: water and ethanol vehicles, read-out: Solubility, 10 mg/ml API solution.
The test system of another data set is S. epidermidis. The experiment in a line: Liquid MIC assay in 96 well plates. The data set is classed as cell-based, Staphylococcus epidermidis. The settings on record: Diclofenac 50-500 ug/ml. The method, then: (§1) The API's formulated with Nanocin were tested on 2 bacterial strains associated with acne. Staphylococcus epidermidis (S. epidermidis) and the anaerobic Pseudomonas acnes (P. acnes). Two types of assay were performed: (i) a bacterial lawn assay where the formulation was pipetted onto a Whatman filter disc and then added to a dried lawn of the bacteria growing on agar; and also, (ii) a liquid minimum inhibitory concentration (MIC) assay, where the bacteria were grown in 96 well plates.
(§2) However, results from both were reliable.

A further data set deals with TNF-α. The experiment in a line: Inflammation assay: TNF-α release of LPS-stimulated THP-1 cells. Particulars: final concentration 1 or 0.1 ug/ml. The data set is classed as cell-based, human. The method, then:
The release of cytokines (looking particularly at those associated with acne inflammation-TNF-α, IL-8, IL-1α) after stimulation with lipopolysaccharide (LPS) is a valid model system to test compounds for potential anti-inflammatory effects (Reference 1)
To standardise conditions for the assay, a LPS dose (0-1 ug/ml) was investigated on TNF-α, IL-8 and IL-1α response, over a time period from 2,4 and 24 hours.
A 1:1 mg/ml (Nanocin:API) was initially formulated in 20% ethanol and the stock formulation was then diluted down with serum free media and tested at a final concentration of 1 or 0.1 ug/ml.

The test system of data set [2] is P. acnes. The experiment in a line: Liquid MIC assay in 96 well plates. The settings on record: Diclofenac 50-500 ug/ml. The data set is classed as cell-based, Pseudomonas acnes. The method, then:
as §1, §2

A short description of data set [3]: In vitro permeation, Franz cell, ToF-SIMS of cross sections and tape strips. The class given is in vitro ADME, pig. Particulars: for permeation, key findings: all methods.
The test system of data set [4] is P. acnes. The experiment in a line: Bacterial lawn assay with soaked filter discs. The class given is cell-based, Pseudomonas acnes. Particulars: Nanocin 1 mg/ml, Diclofenac 0.1-1 mg/ml. The method, then:
as §1, with “plates. The bacterial lawn assay was much faster and easier to grow with the S. epidermidis as it was under aerobic conditions. The P. acnes growth on the agar plates was slower and difficult to capture on a camera (although possible to view by eye; see FIGS. 5c and 5d).” for “plates.”

The next data set has as its system IL-8. Put plainly: Inflammation assay: IL-8 release of LPS-stimulated THP-1 cells. The data set is classed as cell-based, human. The settings on record: for potency at inhibiting the LPS inflammatory response, in words / MIC for inhibiting the LPS inflammatory response (IL-8): dose range 0-30 ug/ml; for MIC for inhibiting the LPS inflammatory response (IL-8) / IL-8 release, in words: 24 h; for IL-8 release, in words: 30 ug/ml API, 100 ug/ml Nanocin.

Data set [5] can be described thus: DLS particle size (z-average) and polydispersity index of API:Nanocin formulations. The class given is physicochemical. More on the design: z-average: unit not given here.
Setting [6] is: aqueous with cosolvent or surfactant or cyclodextrin, 5% ethanol.
[7] abbreviates: aqueous with cosolvent or surfactant or cyclodextrin, 10% ethanol.
[8] abbreviates: aqueous with cosolvent or surfactant or cyclodextrin, 15% ethanol.
[9] abbreviates: aqueous with cosolvent or surfactant or cyclodextrin, 20% ethanol.
Setting [10] is: aqueous with cosolvent or surfactant or cyclodextrin, 30% ethanol.

Like-named read-outs stand apart in the source and are kept apart here.

Regarding `Cc1ccc(-c2cc(C(F)(F)F)nn2-c2ccc(S(N)(=O)=O)cc2)cc1` [Celecoxib], the Solubility in words result in data set [1] is “insolubility”. The solubility in data set [1] (setting [6]), in data set [1] (setting [7]), in data set [1] (setting [8]), in data set [1] (setting [9]), in data set [1] (setting [10]) and in data set [1] (water) was less than 10000 µg/mL throughout.
For `O=C(O)Cc1ccccc1Nc1c(Cl)cccc1Cl` [Diclofenac], the “bacterial growth inhibition by API alone” value with S. epidermidis is “did not exhibit any bacterial growth inhibition”. Further, the “LPS-stimulated TNF-α response, in words” value with TNF-α is “reduced the LPS-stimulated inflammatory response”. The “bacterial growth inhibition / anti-bacterial activity of API alone” value with P. acnes [2] was “did not exhibit any bacterial growth inhibition”. In data set [3] (ToF-SIMS cross sections, 1 mg/ml Diclofenac), the “intensity of diclofenac salt ion markers in stratum corneum” value is “slight elevation”. Further, the “diclofenac salt ion markers in tape strips 1-3 (permeation into top layers of stratum corneum)” value in data set [3] (ToF-SIMS tape strips, 1 mg/ml Diclofenac) was “does not and none”. For the same molecule, the “inhibition of bacterial growth (halo around disc)” value with P. acnes [4] is given as “not seen”. In addition, in data set [1], the Solubility in words result is reported as “most soluble”. The solubility in data set [1] (setting [7]), in data set [1] (setting [8]), in data set [1] (setting [9]), in data set [1] (setting [10]) and in data set [1] (water) was more than 10000 µg/mL throughout. Further, in the data set with IL-8, the “potency at inhibiting the LPS inflammatory response, in words” value is given as “more potent than Ibuprofen”. The “MIC for inhibiting the LPS inflammatory response (IL-8)” value with IL-8 turned out to be 1 µg/mL. Moreover, the “LPS-stimulated IL-8 response, in words” value in the data set with IL-8 (final concentration 1 or 0.1 ug/ml) is “reduced the LPS-stimulated inflammatory response”. For the same molecule, the PDI in data set [5] (0.33:1 mg/ml API:N) came out at 0.251; in data set [5] (1:1 mg/ml API:N) it was 0.817.
Consider `CC(C)Cc1ccc(C(C)C(=O)O)cc1` (centres unmarked) [Ibuprofen], for which the “permeation, key findings” value in data set [3] is “no evidence”. Also, in data set [1], the Solubility in words entry was “better solubility in water and ethanol”. Further, in the data set with IL-8, the “IL-8 release, in words” value is on record as “very little effect on reducing the IL-8 release”. In data set [5] (0.33:1 mg/ml API:N), this molecule had a PDI of 0.289 and a z-average of 194.1. For the same molecule, in data set [5] (1:1 mg/ml API:N), the PDI worked out at 0.34 and the z-average is 311.9.
In the case of `CO[C@H]1C[C@@H]2CC[C@@H](C)[C@@](O)(O2)C(=O)C(=O)N2CCCC[C@H]2C(=O)O[C@H]([C@H](C)C[C@@H]2CC[C@@H](O)[C@H](OC)C2)CC(=O)[C@H](C)/C=C(\C)[C@@H](O)[C@@H](OC)C(=O)[C@H](C)C[C@H](C)/C=C/C=C/C=C/1C` [Rapamycin], in data set [3], the “permeation, key findings” value is given as “no evidence”. For the same molecule, the solubility was less than 10000 µg/mL in data set [1] (setting [6]); less than 10000 µg/mL in data set [1] (setting [7]); less than 10000 µg/mL in data set [1] (setting [8]); less than 10000 µg/mL in data set [1] (setting [9]); more than 10000 µg/mL in data set [1] (setting [10]); less than 10000 µg/mL in data set [1] (water). In addition, the “MIC for inhibiting the LPS inflammatory response (IL-8)” value against IL-8 was 1 µg/mL.
For the molecule `C=CC[C@@H]1/C=C(\C)C[C@H](C)C[C@H](OC)[C@H]2O[C@@](O)(C(=O)C(=O)N3CCCC[C@H]3C(=O)O[C@H](/C(C)=C/[C@@H]3CC[C@@H](O)[C@H](OC)C3)[C@H](C)[C@@H](O)CC1=O)[C@H](C)C[C@@H]2OC` [Tacrolimus], in data set [3], the “permeation, key findings” value is reported as “no evidence”. Moreover, the “Solubility, 10 mg/ml API solution” value in data set [1] (10% ethanol) was “x(better)”. The solubility in data set [1] (setting [6]) is less than 10000 µg/mL; in data set [1] (setting [8]), more than 10000 µg/mL; in data set [1] (setting [9]), more than 10000 µg/mL; in data set [1] (setting [10]), more than 10000 µg/mL; in data set [1] (water), less than 10000 µg/mL. For the same molecule, the “IL-8 release, in words” value in the data set on IL-8 is “more effective anti-inflammatory”. For the same molecule, in the data set on IL-8, the “potency at inhibiting the LPS inflammatory response, in words” value is “more potent than Ibuprofen”. In the data set with IL-8, the “MIC for inhibiting the LPS inflammatory response (IL-8)” value came to 0.3 µg/mL. For the same molecule, the PDI came to 0.332 in data set [5] (0.33:1 mg/ml API:N) and 1 in data set [5] (1:1 mg/ml API:N). For the same molecule, the results for the z-average in data set [5] (0.33:1 mg/ml API:N) and in data set [5] (1:1 mg/ml API:N) were 41.54 and 277.1, respectively.
